Experimental data: ChEMBL document CHEMBL1133917, “Synthesis and pharmacology of modified amidine isoxazoline glycoprotein IIb/IIIa receptor antagonists” (Bioorg Med Chem Lett, 2001)

Columns and labels:
Format in all cases: functional
Homo sapiens = species: Homo sapiens; experiment: Concentration required for maximal in vitro inhibition of aggregation of human platelet rich plasma (hPRP)
Canis familiaris [1] = experiment: Percent inhibition of aggregation of platelet rich plasma at a dose of 0.025 mg/kg, iv, in canine model at 5 hrs; conditions: Canis lupus familiaris
Canis familiaris [2] = experiment: Percent inhibition of aggregation of platelet rich plasma at a dose of 0.025 mg/kg, iv, in canine model after 30 min; conditions: Canis lupus familiaris, 0.5 h
Canis familiaris [3] = experiment: Percent inhibition of aggregation of platelet rich plasma at a dose of 0.025 mg/kg, iv, in canine model at 24 hr; conditions: Canis lupus familiaris
Canis familiaris [4] = experiment: Percent inhibition of ex vivo platelet aggregation of rich plasma at a dose of 0.025 mg/kg, iv, in canine model at 5 hrs; conditions: Canis lupus familiaris

| IC50 (Homo sapiens) | SMILES | further results |
| --- | --- | --- |
| 51 nM | CCNC(=N)c1ccc(C2=NO[C@@H](CC(=O)NC[C@H](NS(=O)(=O)c3cccc(C)c3)C(=O)O)C2)cc1 | – |
| 20 nM | CCCCNC(=N)c1ccc(C2=NOC(CC(=O)NCCC(=O)O)C2)cc1 (centres undefined) | – |
| 50 nM | Cc1cccc(S(=O)(=O)N[C@@H](CNC(=O)C[C@H]2CC(c3ccc(C(=N)N)cc3)=NO2)C(=O)O)c1 | – |
| 12 nM | N/C(=N/Cc1cccc(F)c1)c1ccc(C2=NOC(CC(=O)NCCC(=O)O)C2)cc1 (centres undefined) | – |
| 55 nM | Cc1noc(C)c1S(=O)(=O)N[C@@H](CNC(=O)C[C@H]1CC(c2ccc(C(=N)NCc3cccc(F)c3)cc2)=NO1)C(=O)O | – |
| 60 nM | N=C(N)c1ccc(C2=NO[C@@H](CC(=O)NCCC(=O)O)C2)cc1 | – |
| – | CCNC(=N)c1ccc(C2=NOC(CC(=O)NCCC(=O)O)C2)cc1 (centres undefined) | inhibition in vivo at 0.025 mg/kg (Canis familiaris [1]): 20%; inhibition in vivo at 0.025 mg/kg (Canis familiaris [2]): 70% |
| 55 nM | COc1ccccc1CNC(=N)c1ccc(C2=NO[C@@H](CC(=O)NC[C@H](NS(=O)(=O)c3c(C)noc3C)C(=O)O)C2)cc1 | – |
| 32 nM | COc1ccccc1CNC(=N)c1ccc(C2=NOC(CC(=O)NCCC(=O)O)C2)cc1 (centres undefined) | – |
| 1300 nM | CC(C)CCNC(=N)c1ccc(C2=NOC(CC(=O)NCCC(=O)O)C2)cc1 (centres undefined) | – |
| 87 nM | N/C(=N/Cc1ccccc1)c1ccc(C2=NO[C@@H](CC(=O)NCCC(=O)O)C2)cc1 | – |
| 82 nM | CCCCOC(=O)N[C@@H](CNC(=O)C[C@H]1CC(c2ccc(C(=N)NCC)cc2)=NO1)C(=O)O | – |
| 54 nM | Cc1ccccc1S(=O)(=O)N[C@@H](CNC(=O)C[C@H]1CC(c2ccc(C(=N)N)cc2)=NO1)C(=O)O | – |
| 300 nM | CCCCCNC(=N)c1ccc(C2=NOC(CC(=O)NCCC(=O)O)C2)cc1 (centres undefined) | – |
| 62 nM | CCCCNC(=N)c1ccc(C2=NO[C@@H](CC(=O)NC[C@H](NC(=O)OCCCC)C(=O)O)C2)cc1 | – |
| 40 nM | COc1ccccc1CNC(=N)c1ccc(C2=NO[C@@H](CC(=O)NC[C@H](NS(=O)(=O)c3ccccc3C)C(=O)O)C2)cc1 | inhibition in vivo at 0.025 mg/kg (Canis familiaris [3]): 80% |
| 240 nM | N=C(N)c1ccc(C2=NOC(CC(=O)NCCC(=O)O)C2)cc1 (centres undefined) | – |
| 16 nM | CCCCNC(=N)c1ccc(C2=NO[C@@H](CC(=O)NC[C@H](NS(=O)(=O)c3ccccc3C)C(=O)O)C2)cc1 | – |
| 200 nM | N/C(=N/Cc1ccccc1)c1ccc(C2=NOC(CC(=O)NCCC(=O)O)C2)cc1 (centres undefined) | – |
| 43 nM | CCNC(=N)c1ccc(C2=NO[C@@H](CC(=O)NC[C@H](NS(=O)(=O)c3ccccc3C)C(=O)O)C2)cc1 | inhibition in vivo at 0.025 mg/kg (Canis familiaris [4]): 40% |
| 120 nM | CCCNC(=N)c1ccc(C2=NOC(CC(=O)NCCC(=O)O)C2)cc1 (centres undefined) | – |
